Results from article PMC10866072, “Design, synthesis, molecular modelling and biological evaluation of novel 6-amino-5-cyano-2-thiopyrimidine derivatives as potent anticancer agents against leukemia and apoptotic inducers” (Journal of Enzyme Inhibition and Medicinal Chemistry, 2024).

Assays:
UACC-62 = assay type: cell-based; settings: Homo sapiens, one dose 10^-5 M, 48 h
NCI-H226 = assay type: cell-based; settings: Homo sapiens, one dose 10^-5 M, 48 h
MALME-3M = assay type: cell-based; settings: Homo sapiens, one dose 10^-5 M, 48 h
SK-MEL-2 = assay type: cell-based; settings: Homo sapiens, one dose 10^-5 M, 48 h
PC-3 = assay type: cell-based; settings: Homo sapiens, one dose 10^-5 M, 48 h
HS 578T = assay type: cell-based; settings: Homo sapiens; one dose 10^-5 M, 48 h; HS 578T; read-out: % growth
HL-60(TB) = assay type: cell-based; settings: Homo sapiens, one dose 10^-5 M, 48 h
SF-268 = assay type: cell-based; settings: Homo sapiens, one dose 10^-5 M, 48 h, read-out: % growth
HCT-116 = assay type: cell-based; settings: Homo sapiens, one dose 10^-5 M, 48 h, read-out: % growth
HT29 = assay type: cell-based; settings: Homo sapiens, HT-29, one dose 10^-5 M, 48 h
U251 = assay type: cell-based; settings: Homo sapiens, U-251, one dose 10^-5 M, 48 h
UO-31 = assay type: cell-based; settings: Homo sapiens, UO-31, 48 h, one dose 10^-5 M, 48 h
MCF7 = assay type: cell-based; settings: Homo sapiens, one dose 10^-5 M, 48 h, read-out: % growth
CAKI-1 = assay type: cell-based; settings: Homo sapiens, CAKI-1, 48 h, one dose 10^-5 M, 48 h
NCI-H23 = assay type: cell-based; settings: Homo sapiens, one dose 10^-5 M, 48 h, read-out: % growth
M14 = assay type: cell-based; settings: Homo sapiens, one dose 10^-5 M, 48 h
MDA-MB-468 = assay type: cell-based; settings: Homo sapiens, one dose 10^-5 M, 48 h
RXF 393 = assay type: cell-based; settings: Homo sapiens, RXF 393, 48 h, one dose 10^-5 M, 48 h, read-out: % growth
OVCAR-3 = assay type: cell-based; settings: Homo sapiens, one dose 10^-5 M, 48 h
MDA-MB-231/ATCC = assay type: cell-based; settings: one dose 10^-5 M, 48 h; for % growth at 10 µM: Homo sapiens
KM12 = assay type: cell-based; settings: Homo sapiens, one dose 10^-5 M, 48 h
NCI-H522 = assay type: cell-based; settings: Homo sapiens, one dose 10^-5 M, 48 h
SF-539 = assay type: cell-based; settings: Homo sapiens, one dose 10^-5 M, 48 h
HOP-62 = assay type: cell-based; settings: Homo sapiens, one dose 10^-5 M, 48 h
786-0 = assay type: cell-based; settings: Homo sapiens, one dose 10^-5 M, 48 h
IGROV1 = assay type: cell-based; settings: Homo sapiens, IGROV-1, one dose 10^-5 M, 48 h, read-out: % growth
MOLT-4 = assay type: cell-based; settings: Homo sapiens, one dose 10^-5 M, 48 h, read-out: % growth
DU-145 = assay type: cell-based; settings: Homo sapiens, one dose 10^-5 M, 48 h
EKVX = assay type: cell-based; settings: Homo sapiens, one dose 10^-5 M, 48 h
ACHN = assay type: cell-based; settings: Homo sapiens, one dose 10^-5 M, 48 h
HOP-92 = assay type: cell-based; settings: Homo sapiens, one dose 10^-5 M, 48 h
SW-620 = assay type: cell-based; settings: Homo sapiens, one dose 10^-5 M, 48 h
SNB-75 = assay type: cell-based; settings: Homo sapiens, one dose 10^-5 M, 48 h
A498 = assay type: cell-based; settings: Homo sapiens, one dose 10^-5 M, 48 h
T-47D = assay type: cell-based; settings: Homo sapiens, T47D, one dose 10^-5 M, 48 h, read-out: % growth
MDA-MB-435 = assay type: cell-based; settings: Homo sapiens, one dose 10^-5 M, 48 h, read-out: % growth
HCT-15 = assay type: cell-based; settings: Homo sapiens, one dose 10^-5 M, 48 h, read-out: % growth
K-562 = assay type: cell-based; settings: Homo sapiens, K562, one dose 10^-5 M, 48 h
OVCAR-4 = assay type: cell-based; settings: Homo sapiens, one dose 10^-5 M, 48 h
UACC-257 = assay type: cell-based; settings: Homo sapiens, one dose 10^-5 M, 48 h
SK-MEL-28 = assay type: cell-based; settings: Homo sapiens, one dose 10^-5 M, 48 h
CCRF-CEM = assay type: cell-based; settings: Homo sapiens, one dose 10^-5 M, 48 h
HCC-2998 = assay type: cell-based; settings: Homo sapiens, one dose 10^-5 M, 48 h
RPMI-8226 = assay type: cell-based; settings: Homo sapiens, one dose 10^-5 M, 48 h
SNB-19 = assay type: cell-based; settings: Homo sapiens, one dose 10^-5 M, 48 h, read-out: % growth
A549/ATCC = assay type: cell-based; settings: Homo sapiens, one dose 10^-5 M, 48 h
SK-MEL-5 = assay type: cell-based; settings: Homo sapiens, one dose 10^-5 M, 48 h, read-out: % growth
OVCAR-8 = assay type: cell-based; settings: Homo sapiens, one dose 10^-5 M, 48 h
SN12C = assay type: cell-based, human; settings: Homo sapiens, one dose 10^-5 M, 48 h
OVCAR-5 = assay type: cell-based; settings: Homo sapiens, one dose 10^-5 M, 48 h
NCI-H460 = assay type: cell-based; settings: Homo sapiens, one dose 10^-5 M, 48 h, read-out: % growth
SF-295 = assay type: cell-based; settings: Homo sapiens, one dose 10^-5 M, 48 h
[1] = test system: full NCI 60 cell lines panel; settings: Homo sapiens, 60 cell, 48 h, read-out: Mean % growth
LOX IMVI = assay type: cell-based; settings: Homo sapiens, one dose 10^-5 M, 48 h, read-out: % growth
SR = assay type: cell-based; settings: Homo sapiens, one dose 10^-5 M, 48 h
SK-OV-3 = assay type: cell-based; settings: Homo sapiens, one dose 10^-5 M, 48 h
TK-10 = assay type: cell-based; settings: Homo sapiens, one dose 10^-5 M, 48 h

N=C(NN=Cc1ccc(Br)cc1)c1c(N)nc(S)nc1-c1ccc(Cl)cc1 [Compound 4k, 4-amino-N'-[(4-bromophenyl)methylene]-6–(4-chlorophenyl)-2-mercapto pyrimidine-5-carboximidohydrazide]
% growth at 10 µM (UACC-62): 82.4%
% growth at 10 µM (NCI-H226): 98%
% growth at 10 µM (MALME-3M): 119%
% growth at 10 µM (SK-MEL-2): 96%
percent cell growth at 10 µM (PC-3): 70.5%
activity at 10 µM (HS 578T): 42.6%
% growth at 10 µM (HL-60(TB)): 119%
activity at 10 µM (SF-268): 90.2%
activity at 10 µM (HCT-116): 69.6%
% growth at 10 µM (HT29): 102%
% growth at 10 µM (U251): 77.1%
% cell growth at 10 µM (UO-31): 47.8%
activity at 10 µM (MCF7): 57.5%
% growth at 10 µM (CAKI-1): 62.4%
activity at 10 µM (NCI-H23): 71.8%
% growth at 10 µM (M14): 76.5%
percent cell growth at 10 µM (MDA-MB-468): 84.6%
activity at 10 µM (RXF 393): 82.5%
% growth at 10 µM (OVCAR-3): 101%
% growth at 10 µM (MDA-MB-231/ATCC): -1.21%
% growth (MDA-MB-231/ATCC): -1.21%
% growth at 10 µM (KM12): 76.2%
% growth at 10 µM (NCI-H522): 73.5%
% growth at 10 µM (SF-539): 71.2%
% growth at 10 µM (HOP-62): 98%
% growth at 10 µM (786-0): 89.9%
activity at 10 µM (IGROV1): 68.2%
activity at 10 µM (MOLT-4): 54.6%
% growth at 10 µM (DU-145): 83.9%
% cell growth at 10 µM (EKVX): 66.3%
% growth at 10 µM (ACHN): 77.3%
% growth at 10 µM (HOP-92): 19%
% growth at 10 µM (SW-620): 95.6%
% growth at 10 µM (SNB-75): 35.5%
% growth at 10 µM (A498): 88.4%
activity at 10 µM (T-47D): 54.8%
activity at 10 µM (MDA-MB-435): 87.8%
activity at 10 µM (HCT-15): 73.4%
% growth at 10 µM (K-562): 67.8%
% growth at 10 µM (OVCAR-4): 76.7%
percent cell growth at 10 µM (UACC-257): 81.4%
% cell growth at 10 µM (SK-MEL-28): 105%
% cell growth at 10 µM (CCRF-CEM): 43.4%
% growth at 10 µM (HCC-2998): 111%
% growth at 10 µM (RPMI-8226): 56.8%
activity at 10 µM (SNB-19): 80.4%
% growth at 10 µM (A549/ATCC): 55.3%
activity at 10 µM (SK-MEL-5): 93.3%
% growth of cells at 10 µM (OVCAR-8): 63.7%
% growth at 10 µM (SN12C): 87.7%
percent cell growth at 10 µM (OVCAR-5): 97%
activity at 10 µM (NCI-H460): 73.4%
% cell growth at 10 µM (SF-295): 91.2%
activity at 10 µM [1]: 76.8%
activity at 10 µM (LOX IMVI): 92.3%
percent cell growth at 10 µM (SR): 62.4%
% growth at 10 µM (SK-OV-3): 78.7%
% cell growth at 10 µM (TK-10): 116%

N=C(NN=Cc1ccc(Cl)cc1Cl)c1c(N)nc(S)nc1-c1ccc(Cl)cc1 [Compound 4l, 4-amino-6–(4-chlorophenyl)-N'-[(2,4-dichlorophenyl)methylene]-2-mercapto pyrimidine-5-carboximidohydrazide]
% growth at 10 µM (UACC-62): 43.1%
% growth at 10 µM (NCI-H226): 62.4%
% growth at 10 µM (MALME-3M): 43.4%
% growth at 10 µM (SK-MEL-2): 83.3%
percent cell growth at 10 µM (PC-3): 48%
activity at 10 µM (HS 578T): 36.4%
% growth at 10 µM (HL-60(TB)): 101%
activity at 10 µM (SF-268): 73.6%
activity at 10 µM (HCT-116): 84.2%
% growth at 10 µM (HT29): 87%
% growth at 10 µM (U251): 93.9%
% cell growth at 10 µM (UO-31): 43.2%
activity at 10 µM (MCF7): 53.1%
% growth at 10 µM (CAKI-1): 37%
activity at 10 µM (NCI-H23): 78.3%
% growth at 10 µM (M14): 76.2%
percent cell growth at 10 µM (MDA-MB-468): 88.4%
activity at 10 µM (RXF 393): 31.2%
% growth at 10 µM (OVCAR-3): 80.2%
% growth at 10 µM (MDA-MB-231/ATCC): 52.7%
% growth at 10 µM (KM12): 79.8%
% growth at 10 µM (NCI-H522): 62.3%
% growth at 10 µM (SF-539): 70.3%
% growth at 10 µM (HOP-62): 53%
% growth at 10 µM (786-0): 88.6%
activity at 10 µM (IGROV1): 44.9%
activity at 10 µM (MOLT-4): 66.4%
% growth at 10 µM (DU-145): 79.3%
% cell growth at 10 µM (EKVX): 59%
% growth at 10 µM (ACHN): 53.2%
% growth at 10 µM (HOP-92): 54.9%
% growth at 10 µM (SW-620): 95.8%
% growth at 10 µM (SNB-75): 26.1%
% growth at 10 µM (A498): 6.77%
activity at 10 µM (T-47D): 28.1%
activity at 10 µM (MDA-MB-435): 89%
activity at 10 µM (HCT-15): 77.4%
% growth at 10 µM (K-562): 77.1%
% growth at 10 µM (OVCAR-4): 79.2%
percent cell growth at 10 µM (UACC-257): 96.5%
% cell growth at 10 µM (SK-MEL-28): 75.8%
% cell growth at 10 µM (CCRF-CEM): 64.6%
% growth at 10 µM (HCC-2998): 95%
% growth at 10 µM (RPMI-8226): 46.5%
activity at 10 µM (SNB-19): 84%
% growth at 10 µM (A549/ATCC): 90.7%
activity at 10 µM (SK-MEL-5): 81%
% growth of cells at 10 µM (OVCAR-8): 90%
% growth at 10 µM (SN12C): 65.5%
percent cell growth at 10 µM (OVCAR-5): 73.2%
activity at 10 µM (NCI-H460): 66.3%
% cell growth at 10 µM (SF-295): 85%
activity at 10 µM [1]: 68.3%
activity at 10 µM (LOX IMVI): 69.4%
percent cell growth at 10 µM (SR): 65.6%
% growth at 10 µM (SK-OV-3): 82.1%
% cell growth at 10 µM (TK-10): 98.8%
